Results published in US10421755B2, “Salts of aza-bicyclic di-aryl ethers and methods to make them or their precursors” (Novartis AG, priority 2011, dated 2019).
≈ marks a conversion by molar mass, not a printed value.

Key:
[1] = Pharmacokinetics in rats after oral administration; type: in vivo, Wistar rats; conditions: male, Wistar, rat, in vivo, po, 10 mg/kg; for Tmax: Tmax (h)
Protocol: If a salt forming agent is used (e.g. fumarate), a corresponding higher amount of the salt will be used to achieve the intended dosing.
Both compounds were dissolved in Klucel™ (0.5% in water) and were orally administered by gavage (5 ml/kg) to conscious rats (n=8, cross-over design).
K3-EDTA blood (˜0.2 ml) was collected by puncture of a sublingual vein under light isoflurane anesthesia at the following time points: 0.25, 0.5, 1, 2, 3, 4, 6, 8, 24 h post dose. Immediately after sampling, blood samples were put on ice and were processed to plasma by centrifugation at 4° C. within 15 min after sampling (1000 g, 10 min, 4° C.) to obtain ˜100 μl plasma/sample. All plasma samples were stored at −80° C. until analysis. Since the PK study was performed in a cross-over design, a recovery period of approximately 2 weeks took place before the next treatment/blood sampling was performed.
The determination of compounds in plasma was done by LC-MS/MS using electrospray ionization.

[2] = target: T1, human α7-nAChR (Homo sapiens, UniProt P36544); assay: functional assay (FLIPR, Fluo-4 calcium) using GH3 cells that recombinantly expressed human α7-nAChR; type: cell-based
T1 construct: expressed in transfected cells; host or cells: GH3 cells (rat pituitary line)
T1 sequence (P36544 23-502): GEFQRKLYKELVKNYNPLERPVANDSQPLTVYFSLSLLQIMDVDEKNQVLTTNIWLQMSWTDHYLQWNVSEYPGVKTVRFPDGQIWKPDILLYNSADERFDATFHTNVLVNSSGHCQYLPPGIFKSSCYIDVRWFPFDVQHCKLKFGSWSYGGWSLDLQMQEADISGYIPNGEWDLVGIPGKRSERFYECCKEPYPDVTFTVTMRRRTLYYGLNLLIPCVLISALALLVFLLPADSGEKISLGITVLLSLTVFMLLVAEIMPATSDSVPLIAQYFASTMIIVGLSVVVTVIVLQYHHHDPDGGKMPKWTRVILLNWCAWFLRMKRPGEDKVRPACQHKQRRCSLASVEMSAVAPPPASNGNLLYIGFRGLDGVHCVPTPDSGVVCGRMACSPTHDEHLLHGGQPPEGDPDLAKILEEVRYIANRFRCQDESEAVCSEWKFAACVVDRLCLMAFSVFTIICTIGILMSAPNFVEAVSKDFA
Protocol: Assay: To assess α7-nAChR activity, a functional assay was employed using GH3 cells that recombinantly expressed human α7-nAChR. 40000 cells per well were seeded 48 h prior to the experiment on black 96-well plates (Costar) and incubated at 37° C. in a humidified atmosphere (5% CO2/95% air). On the day of the experiment, medium was removed by flicking the plates and replaced with 0.1 ml growth medium containing 0.002 mM Fluo-4, (Molecular Probes) in the presence of 2.5 mM probenecid (Sigma). The cells were incubated at 37° C. in a humidified atmosphere (5% CO2/95% air) for 1 h. Plates were flicked to remove excess of Fluo-4, washed twice with Hepes-buffered salt solution (HBSS, in mM: NaCl 130, KCl 5.4, CaCl2 2, MgSO4 0.8, NaH2PO4 0.9, glucose 25, Hepes 20, pH 7.4; HBS) and refilled with 0.1 ml of HBS containing antagonist when appropriate. The incubation in the presence of the antagonist lasted 3-5 minutes. Plates were placed in the cell plate stage of a FLIPR device (fluorimetric imaging plate reader, Molecular Devices, Sunnyvale, Calif., USA). After recording of the baseline (laser: excitation 488 nm at 1 W, CCD camera opening of 0.4 seconds) the agonists (0.05 ml) were added to the cell plate using the FLIPR 96-tip pipettor while simultaneously recording the fluorescence. […]

[3] = Known multiple solid forms; type: physicochemical; conditions: comparison table, Example 7
[4] = Hygroscopicity (moisture gain at relative humidity); type: physicochemical; design: Hygroscopy @ 85% RH: unit not given here
[5] = Loss on drying / initial water content; type: physicochemical; design: Initial water content: unit not given here
[6] = Aqueous solubility; type: physicochemical
[7] = target: T2, human neuronal nAChR α4β2 (Homo sapiens, UniProt P17787+P43681); assay: similar functional assay using a human epithelial cell line stably expressing the human α4β2 subtype; type: cell-based
T2 construct: expressed in transfected cells
T2 sequence (P43681 29-627 limits assumed): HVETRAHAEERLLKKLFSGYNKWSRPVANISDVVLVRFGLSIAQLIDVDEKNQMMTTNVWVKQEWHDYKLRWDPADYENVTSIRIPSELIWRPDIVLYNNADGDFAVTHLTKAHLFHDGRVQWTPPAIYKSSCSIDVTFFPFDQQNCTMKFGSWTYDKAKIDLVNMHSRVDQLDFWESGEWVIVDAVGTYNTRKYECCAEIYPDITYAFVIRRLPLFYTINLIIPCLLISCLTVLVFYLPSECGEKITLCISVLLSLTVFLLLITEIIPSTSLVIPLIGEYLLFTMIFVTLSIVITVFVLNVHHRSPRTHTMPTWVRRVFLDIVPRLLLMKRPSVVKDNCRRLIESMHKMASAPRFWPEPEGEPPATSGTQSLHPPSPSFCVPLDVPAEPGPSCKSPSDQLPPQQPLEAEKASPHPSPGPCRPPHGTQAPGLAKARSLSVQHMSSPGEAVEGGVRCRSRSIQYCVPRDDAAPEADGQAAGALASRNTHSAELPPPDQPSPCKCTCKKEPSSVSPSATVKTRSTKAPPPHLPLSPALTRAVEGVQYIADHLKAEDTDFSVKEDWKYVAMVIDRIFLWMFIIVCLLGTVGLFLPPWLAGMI
T2 sequence (P17787 26-502): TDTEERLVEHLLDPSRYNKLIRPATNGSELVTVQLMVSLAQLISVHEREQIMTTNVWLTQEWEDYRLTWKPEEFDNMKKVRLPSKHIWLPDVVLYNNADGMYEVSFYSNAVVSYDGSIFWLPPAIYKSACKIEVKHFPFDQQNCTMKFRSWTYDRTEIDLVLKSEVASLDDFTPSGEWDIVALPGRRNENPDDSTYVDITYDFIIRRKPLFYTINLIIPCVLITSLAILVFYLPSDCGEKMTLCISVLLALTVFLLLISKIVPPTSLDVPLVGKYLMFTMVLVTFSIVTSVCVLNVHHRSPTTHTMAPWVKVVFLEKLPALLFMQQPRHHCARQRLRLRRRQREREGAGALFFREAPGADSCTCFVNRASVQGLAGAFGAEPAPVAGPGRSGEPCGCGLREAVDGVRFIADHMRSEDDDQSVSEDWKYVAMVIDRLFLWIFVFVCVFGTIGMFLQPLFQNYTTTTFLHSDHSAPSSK
Protocol: To assess the activity of the compound of the invention on the human neuronal nAChR α4β2, a similar functional assay is carried out using a human epithelial cell line stably expressing the human α4β2 subtype (Michelmore et al., Naunyn-Schmiedeberg's Arch. Pharmacol. (2002) 366, 235).

[8] = Decomposition temperature; type: physicochemical; design: unit not given here; conditions: comparison table, Example 7
[9] = Oral bioavailability and brain penetration in mice; type: in vivo
Protocol: Assay: Compounds were orally (30 μmol/kg) administered. Male mice (30-35 g, OF1/ICstrain) were sacrificed at indicated time points after oral administration. Trunk-blood was collected in EDTA-containing tubes and the brain was removed and immediately frozen on dry ice. To 100 μl plasma 10 μl internal standard (1.0 μmol of a compound with solubility and ionization properties similar to test compounds) was added and extracted three times with 500 μl dichloromethane. The combined extracts were then dried under a stream of nitrogen and re-dissolved in 100 μl acetonitrile/water (70% acetonitrile). Brains were weighed and homogenized in water (1:5 w/v). Two 100 μl aliquots of each homogenate+10 μl of internal standard (same standard as used for the plasma samples) were extracted three times with 500 μl dichloromethane and further processed as the plasma samples. Samples were separated on Beckmann high-performance liquid chromatography equipment system with an autosampler (Gilson 233XL). A 10 min linear gradient (10-70%) of acetonitrile containing 0.5% (v/v) formic acid was used to elute the compounds from Nucleosil CC-125/2 C18 reversed phase (Machery&Nagel) column.
The limit of detection (LOD), defined as the lowest concentration of the extracted standard sample with a signal to noise ratio of ˜3.

With `Cc1ccc(-c2ccc(O[C@H]3CN4CCC3CC4)cn2)cc1` [Compound A, (R)-3-(6-(4-methylphenyl)-pyridin-3-yloxy)-1-aza-bicyclo[2.2.2]octane] the “Cmax/Dose (ng/mL)/(mg/kg), Mean All” value [1] was 11.3 (ng/mL)/(mg/kg), the AUC(0-t) ([1]; AUClast (h · ng/mL), Mean All) was 200 ± 62 ng·h/mL and the Cmax ([1]; Cmax (ng/mL), Mean All) was 112 ± 40 ng/mL. For the same compound, the Tmax [1] was 15 min, the Tmax ([1]; all rats) was 15 to 30 min and the half-life ([1]; T½ (h), Mean All) was 310 min. For the same compound, the “α7-nAChR activity Efficacy compared to epibatidine (100%)” value ([2]; Emax relative to epibatidine response) was 75%, the EC50 ([2]; GH3 cells, human α7-nAChR, read-out: α7-nAChR activity Potency EC50) was 0.035 µM and the “Known Multiple forms” value [3] was “Yes”. The “hygroscopicity (in words)” value [4] was “hygroscopic”, the moisture gain ([4]; at 93% relative humidity (RH)) was 2% and the “Hygroscopy @ 85% RH” value ([4]; comparison table, Example 7) was about 2. The “Loss on drying (LOD) of a sample” value [5] was 0.1%, the Initial water content ([5]; comparison table, Example 7) was 0.1 and the “aqueous solubility (in words)” value [6] was “low”. The solubility ([6]; aqueous medium, comparison table, Example 7) was 50 µg/mL (≈ 170 µM), the EC50 [7] was over 100 µM and the IC50 [7] was 5.6 µM. The Decomposition temperature [8] was 224, the “Brain (pmoles/g ± SD)” value ([9]; 30 μmol/kg p.o., 0.25 hour) was 4631 ± 1717 pmol/g and the “Brain (pmoles/g ± SD)” value ([9]; 30 μmol/kg p.o., 0.5 hour) was 11430 ± 3441 pmol/g. The “Brain (pmoles/g ± SD)” value ([9]; 30 μmol/kg p.o., 1 hour) was 14948 ± 4716 pmol/g, the “Brain (pmoles/g ± SD)” value ([9]; 30 μmol/kg p.o., 4 hour) was 1272 ± 715 pmol/g and the “Brain (pmoles/g ± SD)” value ([9]; 30 μmol/kg p.o., 8 hour) was 58 ± 27 pmol/g. The “time for which brain concentration is beyond (or at least equal) to the EC50 at the α7-nAChR” value ([9]; acute oral dose of 30 μmol/kg) was “at least 4 hours”, the concentration at 0.25 h ([9]; male, OF1/IC, mouse, plasma, po, 30 μmol/kg p.o., 0.25 hour, read-out: Plasma (pmoles/ml ± SD)) was 573 ± 234 pmol/mL and the concentration at 0.5 h ([9]; male, OF1/IC, mouse, plasma, po, 30 μmol/kg p.o., 0.5 hour, read-out: Plasma (pmoles/ml ± SD)) was 559 ± 143 pmol/mL. The concentration at 1 h ([9]; male, OF1/IC, mouse, plasma, po, 30 μmol/kg p.o., 1 hour, read-out: Plasma (pmoles/ml ± SD)) was 322 ± 135 pmol/mL, the concentration at 4 h ([9]; male, OF1/IC, mouse, plasma, po, 30 μmol/kg p.o., 4 hour, read-out: Plasma (pmoles/ml ± SD)) was 20 ± 16 pmol/mL and the concentration at 8 h ([9]; male, OF1/IC, mouse, plasma, po, 30 μmol/kg p.o., 8 hour, read-out: Plasma (pmoles/ml ± SD)) was 3.4 ± 0.8 pmol/mL.
